According to ChEMBL document CHEMBL1141399, “Synthesis and evaluation of isomeric (17alpha,20E)-11beta-methoxy-21-(trifluoromethylphenyl)-19-norpregna-1,3,5(10),20-tetraene-3,17beta-diols as ERalpha-hormone binding domain ligands: effect of the methoxy group on receptor binding and uterotrophic growth” (J Med Chem, 2007):
Calls of active or inactive are those of the source. The calls are words filed in the database; no cut-off is given here.

What was measured:
[1] = molecular target: T1, Estrogen receptor (Homo sapiens) (UniProt P03372); assay: Displacement of [3H]estradiol from ERalpha isolated from BL21 cells relative to estradiol at 25 degC; format: cell-free
T1 sequence (whole entry): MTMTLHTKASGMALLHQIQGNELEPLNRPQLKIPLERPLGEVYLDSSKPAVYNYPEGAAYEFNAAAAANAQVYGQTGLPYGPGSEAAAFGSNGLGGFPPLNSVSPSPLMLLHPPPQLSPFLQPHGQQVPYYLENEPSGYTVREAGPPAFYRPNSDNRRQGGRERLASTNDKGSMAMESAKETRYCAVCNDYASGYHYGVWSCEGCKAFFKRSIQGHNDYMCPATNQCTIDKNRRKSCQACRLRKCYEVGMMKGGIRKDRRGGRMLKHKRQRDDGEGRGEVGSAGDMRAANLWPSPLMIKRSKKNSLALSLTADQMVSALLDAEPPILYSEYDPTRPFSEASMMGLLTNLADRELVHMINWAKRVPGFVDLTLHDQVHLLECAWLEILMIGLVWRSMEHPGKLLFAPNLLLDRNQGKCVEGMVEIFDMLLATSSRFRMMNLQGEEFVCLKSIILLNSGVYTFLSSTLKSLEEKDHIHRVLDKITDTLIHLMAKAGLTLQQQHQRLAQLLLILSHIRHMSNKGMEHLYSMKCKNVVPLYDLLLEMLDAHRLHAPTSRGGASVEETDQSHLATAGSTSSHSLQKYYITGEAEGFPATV

Rattus norvegicus = species: Rattus norvegicus; assay: Estrogenic efficacy in rat by immature rat uterotrophic growth assay; format: functional, organism-based

**Q.** With `C[C@]12CC[C@@H]3c4ccc(O)cc4CC[C@H]3[C@@H]1CC[C@@]2(O)/C=C/c1cccc(C(F)(F)F)c1` as the compound, how does the RBA [1] read?
**A.** 75

**Q.** With `C[C@]12CC[C@@H]3c4ccc(O)cc4CC[C@H]3[C@@H]1CC[C@@]2(O)/C=C/c1ccccc1C(F)(F)F` as the compound, how does the RBA [1] read?
**A.** 223

**Q.** For `CO[C@H]1C[C@@]2(C)[C@@H](CC[C@@]2(O)/C=C/c2ccccc2)[C@@H]2CCc3cc(O)ccc3[C@H]21`, which RBA [1] is on record?
**A.** 15

**Q.** How did the RBA [1] turn out when `CO[C@H]1C[C@@]2(C)[C@@H](CC[C@@]2(O)/C=C/c2cccc(C(F)(F)F)c2)[C@@H]2CCc3cc(O)ccc3[C@H]21` was run?
**A.** 65

**Q.** Which results are given for `C[C@]12CC[C@@H]3c4ccc(O)cc4CC[C@H]3[C@@H]1CC[C@@]2(O)/C=C/c1ccccc1`?
**A.** RBA [1]: 18; Activity (Rattus norvegicus): inactive

**Q.** For `CO[C@H]1C[C@@]2(C)[C@@H](CC[C@@]2(O)/C=C/c2ccccc2C(F)(F)F)[C@@H]2CCc3cc(O)ccc3[C@H]21`, which RBA [1] is on record?
**A.** 212

**Q.** `C[C@]12CC[C@@H]3c4ccc(O)cc4CC[C@H]3[C@@H]1CC[C@@]2(O)/C=C/c1ccc(C(F)(F)F)cc1` was tested. Which RBA [1] did it give?
**A.** 8

**Q.** With `CO[C@H]1C[C@@]2(C)[C@@H](CC[C@@]2(O)/C=C/c2ccc(C(F)(F)F)cc2)[C@@H]2CCc3cc(O)ccc3[C@H]21` as the compound, how does the RBA [1] read?
**A.** 5
